This is an account of results in PMC6099547, “Expression, Purification, and Characterization of a Novel Hybrid Peptide with Potent Antibacterial Activity” (Molecules : A Journal of Synthetic Chemistry and Natural …, 2018).

Marks after values point to notes of the source that are not given here. Where a SMILES comes first, the peptide text is derived from it.

The subject of series [1] is pepsin. The series can be described thus: Protease susceptibility, residual activity by inhibition zone assay. It counts as in vitro ADME. Particulars: pepsin 10 μg/mL in PBS, agar diffusion inhibition zone; for Functional activity maintained under pepsin: peptide 1 μM in PBS, control without enzyme, S. aureus ATCC25923, three replicates. Here is the method: (§1) CVCC1599 as indicator strains. […] Each assay was performed in triplicate.
In general terms: A growth-free zone around the sample is the usual read-out of agar diffusion tests.

Series [2] deals with proteinase K (Parengyodontium album, UniProt P06873). The series is described as above. It is filed as in vitro ADME. Particulars: proteinase K 10 μg/mL in PBS, peptide 1 μM in PBS; control without enzyme; agar diffusion inhibition zone, S. aureus ATCC25923; three replicates. Here is the method:
as §1

The subject of series [3] is trypsin. The description is as above. The note with it: trypsin 10 μg/mL in PBS, peptide 1 μM in PBS; control without enzyme; agar diffusion inhibition zone, S. aureus ATCC25923; three replicates. Here is the method:
Antibacterial activity of recombinant C–L was assayed by the agar diffusion method with S. aureus ATCC25923 as indicator strain. […] The same volume of PBS was used as negative control. The inhibition zone was measured after incubation overnight at 37 °C. […] CVCC1599 as indicator strains. The indicator strains were cultured at 37 °C to logarithmic stage and diluted to the concentration of 1 × 10^6 cfu/mL with Mueller–Hinton (MH) broth medium, and 180 µL culture was dispensed into per well of 96-well microtiter plate. Peptides were then serially diluted, and dilutions were added into the wells (final volume 200 µL). Each assay was performed in triplicate. After incubation at 37 °C for 12 h, the plate was assessed by measuring the OD600. The MIC was defined as the lowest concentration (at which there was no change in optical density) required to prevent the growth of bacteria.
The stability of the purified recombinant C–L and synthesized C–L at different pH values (2.0–11.0) and different temperatures (37, 50, 60, 70, 80, 90, and 100 °C for 20 min) was evaluated. […] Stability of recombinant C–L and synthesized C–L was assessed by the agar diffusion method as described above and the inhibition zones were recorded. S. aureus ATCC25923 was used as the indicator strain and the inhibition zones were recorded.

Series [4] has as its system E. coli CVCC245. It is filed as cell-based, Escherichia coli. Particulars: CVCC245, 12 h. The protocol: as §1
Series [5] concerns S. aureus ATCC 25923. It is filed as cell-based, Staphylococcus aureus. Particulars: ATCC 25923, 12 h. The protocol: as §1
The test system of series [6] is L. mono. CVCC1599. It is filed as cell-based, Listeria monocytogenes. Particulars: 12 h. The protocol:
as §1

In series [7] the test system is sheep erythrocytes. Kind of series: Hemolytic assay. Particulars: red cells of sheep. It counts as cell-based. Here is the method:
Peptide concentrations that caused 50% hemolysis of sheep erythrocytes at 540 nm were measured to evaluate the hemolytic activities. Sheep erythrocytes with 10 mM phosphate buffered saline (PBS)/0.1% (v/v) Triton X-100 (Sigma, San Francisco, CA, USA) added were used as negative/positive control. Assays were performed in triplicate.

Sequence of proteinase K (P06873 106-384): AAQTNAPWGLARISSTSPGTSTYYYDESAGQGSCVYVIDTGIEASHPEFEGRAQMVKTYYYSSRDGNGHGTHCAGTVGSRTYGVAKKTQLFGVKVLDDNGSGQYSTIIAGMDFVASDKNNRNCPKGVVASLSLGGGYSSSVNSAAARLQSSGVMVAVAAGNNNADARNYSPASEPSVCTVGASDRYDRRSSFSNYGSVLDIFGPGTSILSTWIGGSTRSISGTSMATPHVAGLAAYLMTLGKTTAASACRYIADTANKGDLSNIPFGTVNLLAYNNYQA

Turning to `CC[C@H](C)[C@H](NC(=O)[C@H](CCCCN)NC(=O)[C@H](CCCCN)NC(=O)[C@H](Cc1ccccc1)NC(=O)[C@H](CC(C)C)NC(=O)[C@H](CCCCN)NC(=O)[C@H](Cc1c[nH]c2ccccc12)NC(=O)[C@@H](N)CCCCN)C(=O)N[C@@H](Cc1ccccc1)C(=O)N[C@@H](CCCCN)C(=O)N[C@@H](CCCNC(=N)N)C(=O)N[C@H](C(=O)N[C@H](C(=O)N[C@@H](CCC(N)=O)C(=O)N[C@@H](CCCNC(=N)N)C(=O)N[C@H](C(=O)N[C@@H](CCCCN)C(=O)N[C@@H](CC(=O)O)C(=O)N[C@@H](Cc1ccccc1)C(=O)N[C@@H](CC(C)C)C(=O)N[C@@H](CCCNC(=N)N)C(=O)N[C@@H](CC(N)=O)C(=O)O)[C@@H](C)CC)C(C)C)[C@@H](C)CC` [C–L, cecropin A (1–8)–LL37 (17–30)] (H-KWKLFKKIFKRIVQRIKDFLRN-OH), the “Functional activity maintained under pepsin” value in series [1] was “over 50%”. Also, the “Reduction in activity when exposed to pepsin” value in series [1] (peptide 1 μM) is “nearly half reduction in activity”. Also, in series [2], the “Functional activity maintained under proteinase K” value was “over 50%”. The “Functional activity maintained under trypsin” value in series [3] is listed as “over 50%”.
For the molecule `CC[C@H](C)[C@H](NC(=O)[C@H](CCCCN)NC(=O)[C@H](CCCCN)NC(=O)[C@H](Cc1ccccc1)NC(=O)[C@H](CC(C)C)NC(=O)[C@H](CCCCN)NC(=O)[C@H](Cc1c[nH]c2ccccc12)NC(=O)[C@@H](N)CCCCN)C(=O)N[C@@H](Cc1ccccc1)C(=O)N[C@@H](CCCCN)C(=O)N[C@@H](CCCNC(=N)N)C(=O)N[C@H](C(=O)N[C@H](C(=O)N[C@@H](CCC(N)=O)C(=O)N[C@@H](CCCNC(=N)N)C(=O)N[C@H](C(=O)N[C@@H](CCCCN)C(=O)N[C@@H](CC(=O)O)C(=O)N[C@@H](Cc1ccccc1)C(=O)N[C@@H](CC(C)C)C(=O)N[C@@H](CCCNC(=N)N)C(=O)N[C@@H](CC(N)=O)C(=O)O)[C@@H](C)CC)C(C)C)[C@@H](C)CC` [Synthesized C–L] (H-KWKLFKKIFKRIVQRIKDFLRN-OH), the MIC in series [4] is listed as 7.0 ± 0.21 ^b μg/mL; in series [5], 2.0 ± 0.02 ^c μg/mL; in series [6], 2.2 ± 0.05 ^c μg/mL. Also, the “HC50 (hemolytic activity)” value in series [7] is listed as 219 ± 2.98 ^a μg/mL. Besides, the “Functional activity maintained under pepsin” value in series [1] is given as “maintained a portion of functional activity”. The “Functional activity maintained under proteinase K” value in series [2] is “maintained a portion of functional activity”. In series [3], the “Functional activity maintained under trypsin” value is recorded as “maintained a portion of functional activity”.
As for `CC[C@H](C)[C@H](NC(=O)[C@H](CCCCN)NC(=O)[C@H](CCCCN)NC(=O)[C@H](Cc1ccccc1)NC(=O)[C@H](CC(C)C)NC(=O)[C@H](CCCCN)NC(=O)[C@H](Cc1c[nH]c2ccccc12)NC(=O)[C@@H](N)CCCCN)C(=O)N[C@@H](Cc1ccccc1)C(=O)N[C@@H](CCCCN)C(=O)N[C@@H](CCCNC(=N)N)C(=O)N[C@H](C(=O)N[C@H](C(=O)N[C@@H](CCC(N)=O)C(=O)N[C@@H](CCCNC(=N)N)C(=O)N[C@H](C(=O)N[C@@H](CCCCN)C(=O)N[C@@H](CC(=O)O)C(=O)N[C@@H](Cc1ccccc1)C(=O)N[C@@H](CC(C)C)C(=O)N[C@@H](CCCNC(=N)N)C(=O)N[C@@H](CC(N)=O)C(=O)O)[C@@H](C)CC)C(C)C)[C@@H](C)CC` [Recombinant C–L] (H-KWKLFKKIFKRIVQRIKDFLRN-OH), the MIC in series [4] is on record as 7.2 ± 0.14 ^b μg/mL; in series [5] it was 2.2 ± 0.05 ^c μg/mL; in series [6], 2.1 ± 0.03 ^c μg/mL. Further, the “HC50 (hemolytic activity)” value in series [7] is 221 ± 3.45 ^a μg/mL. Moreover, the “Functional activity maintained under pepsin” value in series [1] is “almost the same stability”. Also, the “Functional activity maintained under proteinase K” value in series [2] was “almost the same stability”. Also, the “Functional activity maintained under trypsin” value in series [3] is “almost the same stability”.
